ChEMBL document CHEMBL1153127, “p16(INK4a) Peptide mimetics identified via virtual screening” (Bioorg Med Chem Lett, 2010)

Key:
Assay type in all cases: protein-complex assay; call rule not given here
[1] = molecular target: Cyclin-dependent kinase 4/cyclin D1 (Homo sapiens, UniProt P11802); experiment: Inhibition of CDK4/Cyclin D1 by FRET assay
CDK6/cyclin D1 [2] = molecular target: CDK6/cyclin D1 (Homo sapiens, UniProt Q00534); experiment: (§1) Inhibition of CDK6/Cyclin D1 by FRET assay
CDK6/cyclin D1 [3] = molecular target: CDK6/cyclin D1 (Homo sapiens, UniProt P24385+Q00534); experiment: as §1
Sequence of CDK6/cyclin D1 (Homo sapiens, UniProt P24385+Q00534) (P24385 whole entry): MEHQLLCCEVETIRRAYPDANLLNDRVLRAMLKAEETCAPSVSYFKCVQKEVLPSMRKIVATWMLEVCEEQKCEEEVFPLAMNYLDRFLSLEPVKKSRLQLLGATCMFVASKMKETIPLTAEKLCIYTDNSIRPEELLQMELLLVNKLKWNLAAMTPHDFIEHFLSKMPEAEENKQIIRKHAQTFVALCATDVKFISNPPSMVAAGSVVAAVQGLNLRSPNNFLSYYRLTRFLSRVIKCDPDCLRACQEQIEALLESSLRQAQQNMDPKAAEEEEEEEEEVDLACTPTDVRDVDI
Sequence of CDK6/cyclin D1 (Homo sapiens, UniProt P24385+Q00534) (Q00534 whole entry): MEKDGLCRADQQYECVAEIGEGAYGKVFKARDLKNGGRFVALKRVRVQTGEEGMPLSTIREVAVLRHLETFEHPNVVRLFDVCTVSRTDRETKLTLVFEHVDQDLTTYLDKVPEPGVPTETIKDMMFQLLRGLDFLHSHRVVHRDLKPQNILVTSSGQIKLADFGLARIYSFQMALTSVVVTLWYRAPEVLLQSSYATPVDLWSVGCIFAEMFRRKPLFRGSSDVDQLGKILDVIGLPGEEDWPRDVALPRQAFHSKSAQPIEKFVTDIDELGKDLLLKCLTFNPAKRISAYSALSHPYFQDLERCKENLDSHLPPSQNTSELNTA

Sequence of Cyclin-dependent kinase 4/cyclin D1 (P11802 whole entry): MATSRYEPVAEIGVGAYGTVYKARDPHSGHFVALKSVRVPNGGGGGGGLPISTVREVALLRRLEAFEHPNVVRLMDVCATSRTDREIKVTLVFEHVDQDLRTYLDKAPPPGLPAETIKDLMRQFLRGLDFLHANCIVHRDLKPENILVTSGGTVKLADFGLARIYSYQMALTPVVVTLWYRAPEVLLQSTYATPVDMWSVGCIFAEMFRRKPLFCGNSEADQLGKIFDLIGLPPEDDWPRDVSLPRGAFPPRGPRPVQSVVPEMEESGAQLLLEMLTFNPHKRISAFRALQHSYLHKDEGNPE
Sequence of Cyclin-dependent kinase 4/cyclin D1 (P24385 whole entry, further chain): as the sequence (P24385 whole entry) above
Sequence of CDK6/cyclin D1 (Homo sapiens, UniProt Q00534) (P24385 whole entry): as above
Sequence of CDK6/cyclin D1 (Homo sapiens, UniProt Q00534) (Q00534 whole entry): as the sequence (Q00534 whole entry) above

| SMILES | IC50 [1] | IC50 (CDK6/cyclin D1 [2]) | IC50 (CDK6/cyclin D1 [3]) |
| --- | --- | --- | --- |
| COc1cc(NCCCN(CCC(C)C)CCC(C)C)c2ncccc2c1 | 162 µM | 325 µM |  |
| COc1cc(NCCN(CC(C)C)CC(C)C)c2ncc(C)cc2c1 | 128 µM |  | Not Active |
